Measured values reported in ChEMBL document CHEMBL1201862, “PubChem BioAssay data set” (2004).
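Compound exposure: 48 hours, 5 concentrations, 96-well plates. GI50 = concentration required for 50% inhibition of growth.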 Active and inactive are the calls of the source. Cut-off read from the data, not from the text of the source: active = GI50 up to about 1.1 µM and inactive = higher.

Tests used:
Assay in all cases: NCI tumour cell line growth inhibition, 48 h
PC-3 = tested on: PC-3
IGROV-1 = tested on: IGROV-1
HOP-62 = tested on: HOP-62
HT-29 = tested on: HT-29
EKVX = tested on: EKVX
OVCAR-8 = tested on: OVCAR-8
SF-295 = tested on: SF-295
Hs-578T = tested on: Hs-578T
SK-MEL-2 = tested on: SK-MEL-2
K562 = tested on: K562
OVCAR-3 = tested on: OVCAR-3
M14 = tested on: M14
SW-620 = tested on: SW-620
SK-MEL-28 = tested on: SK-MEL-28
SR = tested on: SR
U-251 = tested on: U-251
HCT-15 = tested on: HCT-15
MDA-MB-435 = tested on: MDA-MB-435
CCRF-CEM = tested on: CCRF-CEM
CAKI-1 = tested on: CAKI-1

With `CC(=O)O[C@H]1CC[C@@]2(C)C(=CC[C@H]3[C@@H]4C/C(=C\c5ccc(N(C)C)cc5)[C@H](OC(C)=O)[C@@]4(C)CC[C@@H]32)C1` the GI50 (PC-3) was 4.41 µM (inactive), the GI50 (IGROV-1) was 13.8 µM (inactive) and the GI50 (HOP-62) was 14.1 µM (inactive). For the same molecule, the GI50 (HT-29) was 8.43 µM (inactive), the GI50 (EKVX) was 8.69 µM (inactive) and the GI50 (OVCAR-8) was 11.3 µM (inactive). For the same molecule, the GI50 (SF-295) was 4.12 µM (inactive), the GI50 (Hs-578T) was 3.72 µM (inactive) and the GI50 (SK-MEL-2) was 8.53 µM (inactive). The GI50 (K562) was 6.59 µM (inactive), the GI50 (OVCAR-3) was 8.93 µM (inactive) and the GI50 (M14) was 14.2 µM (inactive). The GI50 (SW-620) was 14.9 µM (inactive), the GI50 (SK-MEL-28) was 12.7 µM (inactive) and the GI50 (SR) was 4.1 µM (inactive). The GI50 (U-251) was 6.71 µM (inactive) and the GI50 (HCT-15) was 6.27 µM.
With `CC(C)(C)OC(=O)CC(NC(=O)OC(C)(C)C)C(=O)Oc1ccc([N+](=O)[O-])cc1` (stereo not given) the GI50 (PC-3) was > 100 µM (inactive), the GI50 (IGROV-1) was > 100 µM (inactive) and the GI50 (HOP-62) was > 100 µM (inactive). The GI50 (HT-29) was > 100 µM (inactive), the GI50 (EKVX) was > 100 µM (inactive) and the GI50 (OVCAR-8) was > 100 µM (inactive). The GI50 (SF-295) was > 100 µM (inactive), the GI50 (Hs-578T) was > 100 µM (inactive) and the GI50 (MDA-MB-435) was > 100 µM (inactive). The GI50 (CCRF-CEM) was > 100 µM (inactive), the GI50 (SK-MEL-2) was > 100 µM (inactive) and the GI50 (K562) was > 100 µM (inactive). For the same molecule, the GI50 (OVCAR-3) was > 100 µM (inactive), the GI50 (M14) was > 100 µM (inactive) and the GI50 (SW-620) was > 100 µM (inactive). The GI50 (CAKI-1) was > 100 µM (inactive), the GI50 (SK-MEL-28) was > 100 µM (inactive) and the GI50 (U-251) was > 100 µM (inactive). The GI50 (HCT-15) was over 100 µM.
For `Nc1c(F)c(F)c2c(c1F)N(CCCCCl)c1ccccc1S2`, the GI50 (PC-3) was > 100 µM (inactive), the GI50 (IGROV-1) was > 100 µM (inactive) and the GI50 (HOP-62) was > 100 µM (inactive). The GI50 (HT-29) was > 100 µM (inactive), the GI50 (SF-295) was > 100 µM (inactive) and the GI50 (Hs-578T) was > 100 µM (inactive). The GI50 (CCRF-CEM) was > 100 µM (inactive), the GI50 (SK-MEL-2) was > 100 µM (inactive) and the GI50 (K562) was > 100 µM (inactive). The GI50 (OVCAR-3) was > 100 µM (inactive), the GI50 (M14) was > 100 µM (inactive) and the GI50 (SW-620) was > 100 µM (inactive). For the same molecule, the GI50 (CAKI-1) was > 100 µM (inactive), the GI50 (SK-MEL-28) was > 100 µM (inactive) and the GI50 (SR) was > 100 µM (inactive). For the same molecule, the GI50 (U-251) was > 100 µM (inactive) and the GI50 (HCT-15) was over 100 µM.
`C=CCN1CCC(OC(=O)C(O)(/C=C\CC)C2CCCC2)CC1` (stereo not given) was tested, and the GI50 (PC-3) was > 100 µM (inactive), the GI50 (IGROV-1) was > 100 µM (inactive) and the GI50 (HOP-62) was > 100 µM (inactive). The GI50 (HT-29) was > 100 µM (inactive), the GI50 (EKVX) was > 100 µM (inactive) and the GI50 (OVCAR-8) was > 100 µM (inactive). The GI50 (SF-295) was > 100 µM (inactive), the GI50 (Hs-578T) was > 100 µM (inactive) and the GI50 (MDA-MB-435) was > 100 µM (inactive). The GI50 (CCRF-CEM) was > 100 µM (inactive), the GI50 (SK-MEL-2) was > 100 µM (inactive) and the GI50 (K562) was > 100 µM (inactive). For the same molecule, the GI50 (OVCAR-3) was > 100 µM (inactive), the GI50 (M14) was > 100 µM (inactive) and the GI50 (CAKI-1) was > 100 µM (inactive). The GI50 (SK-MEL-28) was > 100 µM (inactive), the GI50 (U-251) was > 100 µM (inactive) and the GI50 (HCT-15) was over 100 µM.
`CC(=O)NCCCCNCCCNC(C)=O` was tested, and the GI50 (IGROV-1) was > 100 µM (inactive), the GI50 (HT-29) was > 100 µM (inactive) and the GI50 (EKVX) was > 100 µM (inactive). For the same molecule, the GI50 (OVCAR-8) was > 100 µM (inactive), the GI50 (SF-295) was > 100 µM (inactive) and the GI50 (Hs-578T) was > 100 µM (inactive). For the same molecule, the GI50 (MDA-MB-435) was > 100 µM (inactive), the GI50 (CCRF-CEM) was > 100 µM (inactive) and the GI50 (K562) was > 100 µM (inactive). For the same molecule, the GI50 (M14) was > 100 µM (inactive), the GI50 (SW-620) was > 100 µM (inactive) and the GI50 (CAKI-1) was > 100 µM (inactive). The GI50 (SK-MEL-28) was > 100 µM (inactive), the GI50 (U-251) was > 100 µM (inactive) and the GI50 (HCT-15) was over 100 µM.
`CN(Cc1cnc2nc(N)nc(N)c2n1)c1ccc(C(=O)NCS(=O)(=O)O)cc1` was tested, and the GI50 (PC-3) was 48.1 µM (inactive), the GI50 (IGROV-1) was > 100 µM (inactive) and the GI50 (HOP-62) was > 100 µM (inactive). For the same molecule, the GI50 (HT-29) was > 100 µM (inactive), the GI50 (EKVX) was > 100 µM (inactive) and the GI50 (OVCAR-8) was > 100 µM (inactive). For the same molecule, the GI50 (SF-295) was > 100 µM (inactive), the GI50 (Hs-578T) was > 100 µM (inactive) and the GI50 (MDA-MB-435) was 91.2 µM (inactive). The GI50 (SK-MEL-2) was > 100 µM (inactive), the GI50 (K562) was > 100 µM (inactive) and the GI50 (OVCAR-3) was > 100 µM (inactive). For the same molecule, the GI50 (M14) was > 100 µM (inactive), the GI50 (SW-620) was 78.5 µM (inactive) and the GI50 (SK-MEL-28) was > 100 µM (inactive). For the same molecule, the GI50 (U-251) was > 100 µM (inactive) and the GI50 (HCT-15) was over 100 µM.
For `COC(=O)[C@H](Cc1ccccc1)NP(=O)(OCCC#N)OCC1OC(n2cc(C)c(=O)[nH]c2=O)CC1N=[N+]=[N-]` (stereo not given in full), the GI50 (PC-3) was > 100 µM (inactive), the GI50 (IGROV-1) was > 100 µM (inactive) and the GI50 (HOP-62) was > 100 µM (inactive). For the same molecule, the GI50 (HT-29) was > 100 µM (inactive), the GI50 (EKVX) was > 100 µM (inactive) and the GI50 (OVCAR-8) was > 100 µM (inactive). For the same molecule, the GI50 (SF-295) was > 100 µM (inactive), the GI50 (Hs-578T) was > 100 µM (inactive) and the GI50 (MDA-MB-435) was > 100 µM (inactive). For the same molecule, the GI50 (CCRF-CEM) was > 100 µM (inactive), the GI50 (SK-MEL-2) was > 100 µM (inactive) and the GI50 (K562) was > 100 µM (inactive). For the same molecule, the GI50 (M14) was > 100 µM (inactive), the GI50 (SW-620) was > 100 µM (inactive) and the GI50 (CAKI-1) was > 100 µM (inactive). The GI50 (U-251) was > 100 µM (inactive) and the GI50 (HCT-15) was over 100 µM.
For `CN1CC2CC(C1)c1cccc(=O)n1C2` (stereo not given), the GI50 (PC-3) was > 100 µM (inactive), the GI50 (IGROV-1) was > 100 µM (inactive) and the GI50 (HOP-62) was > 100 µM (inactive). For the same molecule, the GI50 (HT-29) was > 100 µM (inactive), the GI50 (EKVX) was > 100 µM (inactive) and the GI50 (OVCAR-8) was > 100 µM (inactive). For the same molecule, the GI50 (SF-295) was > 100 µM (inactive), the GI50 (Hs-578T) was > 100 µM (inactive) and the GI50 (MDA-MB-435) was > 100 µM (inactive). The GI50 (SK-MEL-2) was > 100 µM (inactive), the GI50 (OVCAR-3) was > 100 µM (inactive) and the GI50 (M14) was > 100 µM (inactive). For the same molecule, the GI50 (CAKI-1) was > 100 µM (inactive), the GI50 (U-251) was > 100 µM (inactive) and the GI50 (HCT-15) was over 100 µM.
